Tested on: canine androgen receptor
Conditions: DHT 10^−7 M, 24 hr, control A293S cells lacking the canine AR
Description: Control plates were transfected with all plasmids except canine AR. […] Luciferase activity was normalized for transfection efficiency using β-galactosidase activity.
Control plates were transfected with all the same plasmids except canine AR. […] Cells were harvested 24 hr after compound addition and analyzed for luciferase activity (Luciferase Assay System, Promega, Madison, Wis.) and β-galactosidase activity (Galacto-Star, Tropix, Inc., Bedford, Mass.). Data is expressed as fold induction of luciferase activity as compared to vehicle, following normalization for transfection efficiency using β-galactosidase activity.

In the case of `C[C@]12CCC(=O)C[C@@H]1CC[C@@H]1[C@@H]2CC[C@]2(C)[C@@H](O)CC[C@@H]12` [DHT, 5α-androstan-17β-ol-3-one], the “induction of luciferase activity compared to vehicle” value is reported as “no induction”.
